Assay results published in patent US20250161409A1, “COMPOSITIONS FOR TREATING HYPERHIDROSIS” (PROSPERA BIOTECH, S.L., priority 2022, published 2025).
No end group written: not given here.

Experiments:
[1] = Attenuation of excessive sweating / hyperhidrosis (summary statements); type: in vivo
[2] = tested on: fusion protein complex (SNARE); assay: In vitro reconstitution (ELISA) of the fusion protein complex (SNARE); type: biochemical; conditions: peptide present during the assembly of the fusion complex
Experimental: An additional test of in vitro reconstitution was performed to determine the ability of the peptides to interfere with the formation and stability of the fusion complex (SNARE). The test consists of evaluating the in vitro reconstitution of the fusion protein complex with recombinant proteins produced in Escherichia coli. The reconstitution tests, based on ELISA (Enzyme-Linked Immuno Assay) methods, involve the immobilization of protein SNAP-25 in 96-well plates and the subsequent formation of the fusion protein complex by adding the proteins VAMP and syntaxin in the presence and/or absence of the peptides of the invention. The detection of the complex was performed using an antibody against protein syntaxin (anti-syntaxin), followed by an antibody which recognizes the anti-syntaxin antibody, covalently tagged with a peroxidase. The amount of fusion protein complex was tracked by adding 1,2-phenylenediamine dichloride, whose reaction with the peroxidase produces a product with an orangish-yellow color that absorbs 492 nm in an acid medium.

[3] = tested on: permeabilized chromaffin cells; assay: Inhibition of calcium-induced release of catecholamines in digitonin-permeabilized chromaffin cells; type: cell-based; conditions: 1 mM peptide
From the text: The neuronal-exocytosis (neurosecretion) inhibiting capabilities of the known neuronal exocytosis inhibitors became evident through a test that evaluates the strength of said compounds in inhibiting the release of catecholamines induced by calcium in chromaffin cells permeabilized with the detergent digitonin, in accordance with the method described by Gutiérrez et al. (FEBS Lett 1995, 372, 39-43, and J. Biol. Chem. 1997, 272, 2634-2639); as well as an in vitro reconstitution test of the fusion complex (SNARE).
Briefly, the chromaffin cell cultures are incubated with [3 H]-epinephrine and [3 H]-norepinephrine, are permeabilized with 20 μM digitonin, and stimulated with calcium (10 μM), in the presence of the compounds to be tested, and the amount of radioactivity released by the cells to the extracellular medium, which is a reflection of the exocytosis of [3 H]-epinephrine and [3 H]-norepinephrine, is measured.

Row | Compound | attenuation of excessive sweating ([1]; 0.1-0.01%) | attenuation of hyperhidrosis and excessive sweating ([1]; formulation containing 0.5-1.0% Argireline) | amount of fusion complex (SNARE) formed in presence of peptide [2] | inhibition of the release of catecholamines [3]
1 | CCCCCCCCC(=O)OCC(=O)NCc1cc(OC)c(O)cc1I [Calmpasin®, 2-((4-hydroxy-2-iodo-5-methoxybenzyl)amino)-2-oxoethyl nonanoate] | unable to attenuate excessive sweating | – | – | –
2 | Ac-Glu-Glu-Met-Gln-Arg-Arg (Ac-EEMQRR) [Argireline®, acetyl-hexapeptide commercialized under the tradename Argireline® by Lipotec, S. A] | – | modest effect | – | –
3 | SEQ. ID NO. 1: peptide from the amino end of SNAP-25; 6 amino acid peptide whose acetylated derivative is Argireline (EEMQRR) | – | – | significant decrease | approximately 20%
4 | SEQ. ID NO. 2: peptide from the amino end of SNAP-25 (ELEEMQRRADQLA) | – | – | significant decrease | approximately 35%
